In PubChem BioAssay (NCI):
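The compound was tested at five concentrations on cells cultured in 96-well plates, with a 48-hour exposure period. At the GI50, growth is halved. TGI: concentration producing complete growth inhibition.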

Legend:
Assay in all cases: DTP human tumour cell line panel, 48 h
[1] = tested on: ACHN renal
[2] = tested on: OVCAR-3 ovarian
[3] = tested on: HOP-62 NSCLC
[4] = tested on: DU-145 prostate
[5] = tested on: OVCAR-4 ovarian
[6] = tested on: HCC-2998 colon
[7] = tested on: UO-31 renal
[8] = tested on: LOX IMVI melanoma
[9] = tested on: HS 578T breast
[10] = tested on: HCT-116 colon
[11] = tested on: U251 CNS
[12] = tested on: CCRF-CEM leukemia
[13] = tested on: K-562 leukemia
[14] = tested on: COLO 205 colon
[15] = tested on: SNB-75 CNS
[16] = tested on: NCI-H522 lung
[17] = tested on: A549 NSCLC
[18] = tested on: MCF7 breast
[19] = tested on: UACC-62 melanoma
[20] = tested on: HT29 colon
[21] = tested on: A498 renal
[22] = tested on: MDA-MB-231 breast
[23] = tested on: IGROV1 ovarian
[24] = tested on: MOLT-4 leukemia
[25] = tested on: SR leukemia
[26] = tested on: CAKI-1 renal
[27] = tested on: SW-620 colon
[28] = tested on: M14 melanoma
[29] = tested on: RXF 393 renal
[30] = tested on: TK-10 renal
[31] = tested on: SK-OV-3 ovarian
[32] = tested on: SK-MEL-2 melanoma
[33] = tested on: RPMI-8226 leukemia
[34] = tested on: HOP-92 NSCLC
[35] = tested on: PC-3 prostate
[36] = tested on: SK-MEL-28 melanoma
[37] = tested on: EKVX NSCLC
[38] = tested on: NCI-H226 lung
[39] = tested on: OVCAR-8 ovarian
[40] = tested on: SNB-19 CNS
[41] = tested on: BT-549 breast
[42] = tested on: KM12 colon
[43] = tested on: SK-MEL-5 melanoma
[44] = tested on: UACC-257 melanoma
[45] = tested on: SF-268 CNS
[46] = tested on: SF-295 CNS
[47] = tested on: OVCAR-5 ovarian
[48] = tested on: NCI-H460 lung
[49] = tested on: HL-60(TB) leukemia
[50] = tested on: 786-0 renal
[51] = tested on: NCI/ADR-RES ovarian
[52] = tested on: HCT-15 colon
[53] = tested on: SF-539 CNS
[54] = tested on: MALME-3M melanoma
[55] = tested on: SN12C renal
[56] = tested on: MDA-MB-435
[57] = tested on: T-47D breast
[58] = tested on: NCI-H23 lung

Compound: Cc1ccc(/C(=N\N=C(N)N)c2ccccc2)cc1
- GI50 [1]: 0.777 µM
- TGI [1]: 14.8 µM
- GI50 [2]: 0.228 µM
- TGI [2]: 0.597 µM
- GI50 [3]: 0.672 µM
- TGI [3]: 14.3 µM
- GI50 [4]: 0.41 µM
- TGI [4]: 10.4 µM
- GI50 [5]: 0.791 µM
- TGI [5]: 18.6 µM
- GI50 [6]: 0.241 µM
- TGI [6]: 0.677 µM
- GI50 [7]: 1.12 µM
- TGI [7]: 17.1 µM
- GI50 [8]: 0.611 µM
- TGI [8]: 12.5 µM
- GI50 [9]: 0.349 µM
- TGI [9]: 3.67 µM
- GI50 [10]: 0.342 µM
- TGI [10]: 11.3 µM
- GI50 [11]: 0.365 µM
- TGI [11]: 11.5 µM
- GI50 [12]: 0.689 µM
- TGI [12]: > 100 µM
- GI50 [13]: 0.339 µM
- TGI [13]: > 100 µM
- GI50 [14]: 0.282 µM
- TGI [14]: 0.714 µM
- GI50 [15]: 0.288 µM
- TGI [15]: 4.94 µM
- GI50 [16]: 0.372 µM
- TGI [16]: 13.3 µM
- GI50 [17]: 0.433 µM
- TGI [17]: 17.3 µM
- GI50 [18]: 0.292 µM
- TGI [18]: 10.2 µM
- GI50 [19]: 0.438 µM
- TGI [19]: 15.8 µM
- GI50 [20]: 0.344 µM
- TGI [20]: 5.73 µM
- GI50 [21]: 0.272 µM
- TGI [21]: 1.02 µM
- GI50 [22]: 0.394 µM
- TGI [22]: 3.93 µM
- GI50 [23]: 0.459 µM
- TGI [23]: 31.4 µM
- GI50 [24]: 0.796 µM
- TGI [24]: > 92.3 µM
- GI50 [25]: 1.83 µM
- TGI [25]: 24.8 µM
- GI50 [26]: 0.843 µM
- TGI [26]: 20.1 µM
- GI50 [27]: 0.418 µM
- TGI [27]: 19.1 µM
- GI50 [28]: 0.285 µM
- TGI [28]: 0.977 µM
- GI50 [29]: 0.296 µM
- TGI [29]: 2.9 µM
- GI50 [30]: 0.549 µM
- TGI [30]: 15.1 µM
- GI50 [31]: 0.42 µM
- TGI [31]: 10.4 µM
- GI50 [32]: 5.02 µM
- TGI [32]: 28.7 µM
- GI50 [33]: 0.692 µM
- TGI [33]: 42.7 µM
- GI50 [34]: 1.68 µM
- TGI [34]: 20.2 µM
- GI50 [35]: 0.406 µM
- TGI [35]: 18.7 µM
- GI50 [36]: 0.535 µM
- TGI [36]: 15.4 µM
- GI50 [37]: 0.998 µM
- TGI [37]: 26 µM
- GI50 [38]: 0.726 µM
- TGI [38]: 10.1 µM
- GI50 [39]: 0.521 µM
- TGI [39]: 14.3 µM
- GI50 [40]: 0.455 µM
- TGI [40]: 13.1 µM
- GI50 [41]: 0.744 µM
- TGI [41]: 7.62 µM
- GI50 [42]: 0.367 µM
- TGI [42]: 5.05 µM
- GI50 [43]: 0.353 µM
- TGI [43]: 1.73 µM
- GI50 [44]: 11.7 µM
- TGI [44]: 28.2 µM
- GI50 [45]: 0.868 µM
- TGI [45]: 17.3 µM
- GI50 [46]: 0.306 µM
- TGI [46]: 3.15 µM
- GI50 [47]: 0.83 µM
- TGI [47]: 18.3 µM
- GI50 [48]: 0.33 µM
- TGI [48]: 3.19 µM
- GI50 [49]: 0.318 µM
- TGI [49]: > 36.2 µM
- GI50 [50]: 0.594 µM
- TGI [50]: 12.1 µM
- GI50 [51]: 1.09 µM
- TGI [51]: 4.51 µM
- GI50 [52]: 0.371 µM
- TGI [52]: 11.5 µM
- GI50 [53]: 0.265 µM
- TGI [53]: 0.925 µM
- GI50 [54]: 0.391 µM
- TGI [54]: 17.3 µM
- GI50 [55]: 0.587 µM
- TGI [55]: 13.4 µM
- GI50 [56]: 0.203 µM
- TGI [56]: 0.631 µM
- GI50 [57]: 0.421 µM
- TGI [57]: 24.6 µM
- GI50 [58]: 0.597 µM
- TGI [58]: 9.98 µM

Compound: CCNc1ccc2c(c1)Cc1ccccc1-2
- TGI [1]: > 100 µM
- TGI [2]: > 100 µM
- TGI [3]: > 100 µM
- TGI [4]: > 100 µM
- TGI [5]: > 100 µM
- TGI [6]: > 100 µM
- TGI [7]: > 100 µM
- TGI [8]: > 100 µM
- TGI [9]: > 100 µM
- TGI [10]: > 100 µM
- TGI [11]: > 100 µM
- TGI [12]: > 100 µM
- TGI [13]: > 100 µM
- TGI [14]: > 100 µM
- TGI [15]: > 100 µM
- TGI [16]: > 100 µM
- TGI [17]: > 100 µM
- TGI [18]: > 100 µM
- TGI [19]: > 100 µM
- TGI [20]: > 100 µM
- TGI [21]: > 100 µM
- TGI [22]: > 100 µM
- TGI [23]: > 100 µM
- TGI [24]: > 100 µM
- TGI [25]: > 100 µM
- TGI [26]: > 100 µM
- TGI [27]: > 100 µM
- TGI [28]: > 100 µM
- TGI [29]: > 100 µM
- TGI [30]: > 100 µM
- TGI [32]: > 100 µM
- TGI [33]: > 100 µM
- TGI [34]: 82.4 µM
- TGI [35]: > 100 µM
- TGI [36]: > 100 µM
- TGI [37]: > 100 µM
- TGI [38]: > 100 µM
- TGI [39]: > 100 µM
- TGI [40]: > 100 µM
- TGI [41]: 75.5 µM
- TGI [42]: > 100 µM
- TGI [43]: > 100 µM
- TGI [44]: > 100 µM
- TGI [45]: > 100 µM
- TGI [46]: > 100 µM
- TGI [47]: > 100 µM
- TGI [48]: > 100 µM
- TGI [49]: > 100 µM
- TGI [50]: > 100 µM
- TGI [51]: > 100 µM
- TGI [52]: > 100 µM
- TGI [53]: > 100 µM
- TGI [54]: > 100 µM
- TGI [55]: > 100 µM
- TGI [56]: > 100 µM
- TGI [57]: > 100 µM
- TGI [58]: > 100 µM
